Results on 1 compound are retold here after patent publication US20160311914A1, “USE OF B LYMPHOCYTE STIMULATOR PROTEIN ANTAGONISTS TO PROMOTE TRANSPLANTATION TOLERANCE” (The Trustees of the University of Pennsylvania, priority 2009, published 2016).

Test [1] has as its system Streptozotocin-treated diabetic BALB/c mice transplanted with B6 islets. Kind of test: Islet allograft survival, B6 islets transplanted into Streptozotocin-treated diabetic BALB/c mice. Type of test: in vivo, mouse. To be noted: FIG. 2. The method, then:
(§1) FIG. 1 is a timeline detailing the administration of anti-B Lymphocyte Stimulator (anti-BLys™) antibodies and Rapamycin in Streptozotocin-treated diabetic mice transplanted with islets from another mouse strain.
FIG. 2 is a graph illustrating the percent survival (y-axis) versus time in days (x-axis) for Streptozotocin-treated diabetic BALB/c mice transplanted with B6 islets. Mice were administered Rapamycin (Rapa) (-□-); anti-B Lymphocyte Stimulator (anti-BLys™) antibodies and Rapamycin (anti-BLys™/Rapa) (-Δ-); or neither (no treatment; control) (-⋄-) in accordance with the timeline set forth in FIG. 1.
(§2) BLyS™ regulates mature B-lymphocyte survival and negative selection at the transitional to follicular (TR:FO) tolerance checkpoint. To determine the effect of BLyS™ in an in vivo allograft model, murine islet cells from B6 and BALB/c donor mice were transplanted into Streptozotocin-treated diabetic BALB/c and B6 mice, respectively. The recipient mice were treated with a regimen consisting of a B-lymphocyte depleting dose of a neutralizing anti-BLyS™ mAb (100 μg) on days 10 and 1 post-transplantation, followed by a weekly maintenance taper (50 μg×2 wks, 25 μg×2 wks, 10 μg×2 wks, and 5 μg×2 wks). Starting on the day of islet transplantation, the Streptozotocin treated diabetic recipients were treated with 0.5 mg/kg Rapamycin every other day for two weeks.

The test system of test [2] is Streptozotocin-treated diabetic B6 mice transplanted with BALB/c islets. Briefly: Islet allograft survival, BALB/c islets transplanted into Streptozotocin-treated diabetic B6 mice. Type of test: in vivo, mouse. To be noted: FIG. 3. The method, then: as §1
FIG. 3 is a graph illustrating the percent survival (y-axis) versus time in days (x-axis) for Streptozotocin-treated diabetic B6 mice transplanted with BALB/c islets. Mice were administered Rapamycin (Rapa) (-□-); anti-B Lymphocyte Stimulator (anti-BLys™) antibodies and Rapamycin (anti-BLys™/Rapa) (-Δ-); or neither (no treatment; control) (-⋄-) in accordance with the timeline set forth in FIG. 1.
as §2

For `CO[C@H]1C[C@@H]2CC[C@@H](C)[C@@](O)(O2)C(=O)C(=O)N2CCCC[C@H]2C(=O)O[C@H]([C@H](C)C[C@@H]2CC[C@@H](O)[C@H](OC)C2)CC(=O)[C@H](C)/C=C(\C)[C@@H](O)[C@@H](OC)C(=O)[C@H](C)C[C@H](C)/C=C/C=C/C=C/1C` [Rapamycin], the “mean survival time (MST)” value in test [1] amounted to 61 days; in test [2] it was 39 days.
